Test results published in article PMC6973046 (Journal of Thrombosis and Haemostasis, 2019).

Assays:
[1] = tested on: humans; details: cited from earlier work
[2] = molecular target: T1, tissue transglutaminase (Homo sapiens, UniProt P21980); test: Isopeptidase assay; type: biochemical; details: read-out: IC50 against tissue transglutaminase in the isopeptidase assay
T1 sequence (P21980 1-687): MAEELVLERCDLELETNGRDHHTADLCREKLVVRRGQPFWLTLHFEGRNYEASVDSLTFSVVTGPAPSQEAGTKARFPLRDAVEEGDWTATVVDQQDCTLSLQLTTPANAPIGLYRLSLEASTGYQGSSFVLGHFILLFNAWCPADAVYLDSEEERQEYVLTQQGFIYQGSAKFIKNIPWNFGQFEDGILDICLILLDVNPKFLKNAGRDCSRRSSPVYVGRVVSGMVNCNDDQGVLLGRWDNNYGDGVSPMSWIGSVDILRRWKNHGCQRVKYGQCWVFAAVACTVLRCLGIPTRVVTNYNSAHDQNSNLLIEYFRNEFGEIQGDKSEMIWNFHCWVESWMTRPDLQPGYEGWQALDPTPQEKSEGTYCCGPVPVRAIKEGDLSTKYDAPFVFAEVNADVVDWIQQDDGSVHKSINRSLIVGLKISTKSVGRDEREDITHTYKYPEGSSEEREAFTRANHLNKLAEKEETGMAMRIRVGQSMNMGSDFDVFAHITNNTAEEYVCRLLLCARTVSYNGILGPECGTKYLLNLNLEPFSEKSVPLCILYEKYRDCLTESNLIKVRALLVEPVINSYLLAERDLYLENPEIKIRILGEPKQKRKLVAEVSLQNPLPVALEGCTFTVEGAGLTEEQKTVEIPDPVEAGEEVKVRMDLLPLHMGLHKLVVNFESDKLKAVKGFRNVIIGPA

Row | Compound | Safety and tolerability [1] | IC50 [2]
1 | CCC(CC)CNC(=O)Cn1cccc(NC(=O)[C@H](CC/C=C/C(=O)OC)NC(=O)c2cncn2C)c1=O [ZED1227] | safe and well tolerated | –
2 | CC(=O)CSc1n(C)c(C)c(C)[n+]1C [L‐682.777] | – | ~250 nM
